{
  "source": "ChEMBL document CHEMBL1201862",
  "about": "“PubChem BioAssay data set” (2004)",
  "key": {"[1]": {"target": "Histone-lysine N-methyltransferase NSD2 (Homo sapiens, UniProt O96028)", "sequence (O96028 whole entry)": "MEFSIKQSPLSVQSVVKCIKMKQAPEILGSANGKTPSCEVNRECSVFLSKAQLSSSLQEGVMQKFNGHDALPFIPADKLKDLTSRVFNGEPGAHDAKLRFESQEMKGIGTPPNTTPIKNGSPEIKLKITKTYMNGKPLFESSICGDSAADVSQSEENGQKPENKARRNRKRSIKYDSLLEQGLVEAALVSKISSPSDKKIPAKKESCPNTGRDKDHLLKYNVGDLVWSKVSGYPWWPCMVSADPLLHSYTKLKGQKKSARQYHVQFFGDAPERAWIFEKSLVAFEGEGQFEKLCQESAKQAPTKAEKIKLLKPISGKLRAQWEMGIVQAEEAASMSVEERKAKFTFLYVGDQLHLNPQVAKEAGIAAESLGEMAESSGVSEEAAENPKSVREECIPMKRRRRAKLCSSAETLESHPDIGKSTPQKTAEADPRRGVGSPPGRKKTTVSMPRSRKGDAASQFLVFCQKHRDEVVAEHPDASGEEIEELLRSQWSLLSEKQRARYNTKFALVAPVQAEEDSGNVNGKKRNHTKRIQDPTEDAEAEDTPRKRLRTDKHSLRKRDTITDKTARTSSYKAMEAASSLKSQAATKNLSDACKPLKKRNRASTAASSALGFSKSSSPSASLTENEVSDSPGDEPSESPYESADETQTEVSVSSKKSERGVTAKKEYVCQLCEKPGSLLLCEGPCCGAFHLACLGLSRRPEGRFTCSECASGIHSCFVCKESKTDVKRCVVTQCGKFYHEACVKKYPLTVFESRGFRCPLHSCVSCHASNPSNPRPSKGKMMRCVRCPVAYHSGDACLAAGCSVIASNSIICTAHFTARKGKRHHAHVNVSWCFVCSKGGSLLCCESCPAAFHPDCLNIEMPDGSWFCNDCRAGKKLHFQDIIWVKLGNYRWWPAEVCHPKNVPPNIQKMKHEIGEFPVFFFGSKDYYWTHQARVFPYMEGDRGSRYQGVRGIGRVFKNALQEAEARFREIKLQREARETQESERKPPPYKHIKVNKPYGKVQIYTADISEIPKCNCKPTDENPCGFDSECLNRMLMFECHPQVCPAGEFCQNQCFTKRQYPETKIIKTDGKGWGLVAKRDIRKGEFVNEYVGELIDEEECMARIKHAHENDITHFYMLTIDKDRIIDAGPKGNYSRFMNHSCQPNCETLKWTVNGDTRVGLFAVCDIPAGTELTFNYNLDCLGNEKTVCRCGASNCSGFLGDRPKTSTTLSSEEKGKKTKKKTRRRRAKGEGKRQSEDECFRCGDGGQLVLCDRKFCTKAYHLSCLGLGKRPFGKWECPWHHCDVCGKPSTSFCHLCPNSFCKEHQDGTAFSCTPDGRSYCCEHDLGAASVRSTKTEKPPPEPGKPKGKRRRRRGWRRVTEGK", "type": "biochemical"}, "[2]": {"target": "T1, Zinc finger protein mex-5 (Caenorhabditis elegans, UniProt Q9XUB2)", "T1 sequence (Q9XUB2 whole entry)": "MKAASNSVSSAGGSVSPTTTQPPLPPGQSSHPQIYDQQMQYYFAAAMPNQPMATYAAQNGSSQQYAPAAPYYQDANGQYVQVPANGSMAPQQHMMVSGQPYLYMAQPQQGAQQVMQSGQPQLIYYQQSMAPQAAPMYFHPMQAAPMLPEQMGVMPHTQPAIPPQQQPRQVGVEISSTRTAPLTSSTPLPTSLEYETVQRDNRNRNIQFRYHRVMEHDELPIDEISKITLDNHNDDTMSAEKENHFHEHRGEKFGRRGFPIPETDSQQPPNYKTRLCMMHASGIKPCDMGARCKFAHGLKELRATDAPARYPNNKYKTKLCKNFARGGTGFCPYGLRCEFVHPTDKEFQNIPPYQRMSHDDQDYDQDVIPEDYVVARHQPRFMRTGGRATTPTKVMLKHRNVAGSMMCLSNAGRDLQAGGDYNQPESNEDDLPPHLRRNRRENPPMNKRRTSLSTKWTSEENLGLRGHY", "experiment": "MEX-5/TCR-2 RNA interaction inhibitors, dose response, biochemical, C. elegans, fluorescence polarization (AID 1960)"}, "[3]": {"target": "T2, RNA-binding protein pos-1 (Caenorhabditis elegans, UniProt G5EF15)", "T2 sequence (G5EF15 whole entry)": "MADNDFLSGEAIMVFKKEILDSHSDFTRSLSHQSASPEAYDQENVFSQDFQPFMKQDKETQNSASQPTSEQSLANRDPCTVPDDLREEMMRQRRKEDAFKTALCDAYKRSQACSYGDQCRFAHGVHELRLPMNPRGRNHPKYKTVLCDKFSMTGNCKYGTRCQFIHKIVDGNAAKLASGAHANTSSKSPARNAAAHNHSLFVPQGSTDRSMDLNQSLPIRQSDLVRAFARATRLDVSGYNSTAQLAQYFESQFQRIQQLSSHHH", "experiment": "inhibitors of POS-1/mex-3 RNA binding, dose response, biochemical, fluorescence polarization (AID 1964);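 note: purified POS-1 fused to maltose binding protein made in E. coli; potency of compounds blocking POS-1 binding to fluorescent RNA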"}, "[4]": {"target": "T3, Carboxy-terminal domain RNA polymerase II polypeptide A small phosphatase 1 (Homo sapiens, UniProt Q9GZU7)", "T3 sequence (Q9GZU7 whole entry)": "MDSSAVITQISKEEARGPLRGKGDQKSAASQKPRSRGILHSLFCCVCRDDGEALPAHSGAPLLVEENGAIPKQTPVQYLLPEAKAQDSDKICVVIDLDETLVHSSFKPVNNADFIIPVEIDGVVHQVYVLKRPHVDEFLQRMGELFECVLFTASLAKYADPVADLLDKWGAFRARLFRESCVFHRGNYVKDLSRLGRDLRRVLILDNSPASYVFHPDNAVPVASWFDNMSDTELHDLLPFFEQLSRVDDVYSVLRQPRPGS", "experiment": "inhibitors of CTDSP1, concentration-response testing, biochemical assay, absorbance-based, actives from ultra-high-throughput screening (AID 540297)", "type": "functional"}, "[5]": {"target": "DNA (cytosine-5)-methyltransferase 1 (Homo sapiens, UniProt P26358)", "sequence (P26358 whole entry)": "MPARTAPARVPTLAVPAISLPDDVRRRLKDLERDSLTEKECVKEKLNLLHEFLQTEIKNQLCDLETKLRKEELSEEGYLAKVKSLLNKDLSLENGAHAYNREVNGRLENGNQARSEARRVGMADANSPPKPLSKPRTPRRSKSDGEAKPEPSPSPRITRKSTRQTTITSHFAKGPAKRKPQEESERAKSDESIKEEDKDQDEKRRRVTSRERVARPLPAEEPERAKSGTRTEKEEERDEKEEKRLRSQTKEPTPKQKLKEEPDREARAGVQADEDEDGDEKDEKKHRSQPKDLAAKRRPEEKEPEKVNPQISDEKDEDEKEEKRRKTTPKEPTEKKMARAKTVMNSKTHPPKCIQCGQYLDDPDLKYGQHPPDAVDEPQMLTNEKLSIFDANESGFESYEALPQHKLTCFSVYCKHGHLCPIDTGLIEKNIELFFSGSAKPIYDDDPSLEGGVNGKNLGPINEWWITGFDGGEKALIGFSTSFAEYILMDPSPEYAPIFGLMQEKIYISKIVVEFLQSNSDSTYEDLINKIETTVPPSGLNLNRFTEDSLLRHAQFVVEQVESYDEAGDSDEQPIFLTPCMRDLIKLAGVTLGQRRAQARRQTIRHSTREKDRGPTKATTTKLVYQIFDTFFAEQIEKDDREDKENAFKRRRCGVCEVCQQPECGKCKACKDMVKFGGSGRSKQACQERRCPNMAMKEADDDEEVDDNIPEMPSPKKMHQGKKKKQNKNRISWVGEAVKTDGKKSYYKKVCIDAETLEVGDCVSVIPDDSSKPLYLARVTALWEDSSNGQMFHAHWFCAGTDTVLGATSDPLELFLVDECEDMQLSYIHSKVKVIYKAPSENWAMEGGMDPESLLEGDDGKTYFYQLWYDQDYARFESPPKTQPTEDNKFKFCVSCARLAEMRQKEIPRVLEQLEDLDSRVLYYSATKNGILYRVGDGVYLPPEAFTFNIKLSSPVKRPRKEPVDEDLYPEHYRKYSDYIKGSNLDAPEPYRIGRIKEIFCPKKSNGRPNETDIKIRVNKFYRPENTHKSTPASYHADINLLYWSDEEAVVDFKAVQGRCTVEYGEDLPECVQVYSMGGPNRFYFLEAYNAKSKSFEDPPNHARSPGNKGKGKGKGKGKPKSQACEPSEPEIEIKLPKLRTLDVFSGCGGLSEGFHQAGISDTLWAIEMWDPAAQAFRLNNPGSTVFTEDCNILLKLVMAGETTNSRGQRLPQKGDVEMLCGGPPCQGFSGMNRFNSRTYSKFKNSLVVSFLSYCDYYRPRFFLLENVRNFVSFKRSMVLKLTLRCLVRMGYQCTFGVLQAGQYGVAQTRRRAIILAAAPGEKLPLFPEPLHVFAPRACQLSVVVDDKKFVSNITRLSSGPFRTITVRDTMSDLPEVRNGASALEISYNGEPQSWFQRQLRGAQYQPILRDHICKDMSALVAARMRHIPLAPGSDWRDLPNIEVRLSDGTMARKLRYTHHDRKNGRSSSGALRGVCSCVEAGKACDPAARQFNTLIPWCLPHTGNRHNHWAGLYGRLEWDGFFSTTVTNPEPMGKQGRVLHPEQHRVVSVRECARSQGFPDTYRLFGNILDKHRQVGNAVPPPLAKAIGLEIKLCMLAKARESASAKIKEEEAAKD", "experiment": "DNMT1 methyltransferase inhibitors, confirmation, biochemical, fluorescent molecular beacon (AID 602386)", "type": "functional"}, "[6]": {"target": "Genome polyprotein (dengue virus type 2, UniProt P29990)", "experiment": "Dengue-2 NS5 methyltransferase inhibitors, primary screen, biochemical, confirmation dose response (AID 588689)", "type": "functional"}, "[7]": {"target": "Protein Wnt-3a (Mus musculus, UniProt P27467)", "sequence (P27467 whole entry)": "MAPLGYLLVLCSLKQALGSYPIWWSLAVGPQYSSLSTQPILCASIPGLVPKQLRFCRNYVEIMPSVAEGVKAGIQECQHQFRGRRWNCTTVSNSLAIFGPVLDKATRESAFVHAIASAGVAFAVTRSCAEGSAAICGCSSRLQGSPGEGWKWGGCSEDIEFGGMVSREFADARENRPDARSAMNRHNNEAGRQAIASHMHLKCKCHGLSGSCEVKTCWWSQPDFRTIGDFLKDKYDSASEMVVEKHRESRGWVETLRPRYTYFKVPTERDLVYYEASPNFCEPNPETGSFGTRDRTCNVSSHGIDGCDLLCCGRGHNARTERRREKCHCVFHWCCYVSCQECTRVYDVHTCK", "experiment": "Wnt3a-driven reporter signaling inhibition, dose response, selectivity assay for Gli-SUFU antagonist project, Wnt-LIGHT cells, luminescence (AID 651570);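 note: Wnt-LIGHT reporter cells stimulated with conditioned medium from Wnt3a-producing cells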", "type": "functional", "details": "read-out: IC50_Mean"}, "[8]": {"experiment": "Shn3 3'UTR reporter inhibitors, dose response, cell-based, Clone20 osteoblasts, firefly luciferase, cherry-picked (AID 624132)", "type": "functional"}, "[9]": {"experiment": "control 3'UTR Renilla luciferase suppression, dose response, counter-screen for Shn3 inhibitor project, cell-based, Clone20-Shn3RL, cherry-picked (AID 624133)", "type": "functional"}, "[10]": {"experiment": "HepG2 cell cytotoxicity, dose response, cytotoxicity control for Shn3 inhibitor project, CellTiter-Glo, cherry-picked (AID 624134)", "type": "functional, cell-based"}, "[11]": {"target": "DNA repair and recombination protein RAD54-like (Homo sapiens, UniProt Q92698)", "sequence (Q92698 whole entry)": "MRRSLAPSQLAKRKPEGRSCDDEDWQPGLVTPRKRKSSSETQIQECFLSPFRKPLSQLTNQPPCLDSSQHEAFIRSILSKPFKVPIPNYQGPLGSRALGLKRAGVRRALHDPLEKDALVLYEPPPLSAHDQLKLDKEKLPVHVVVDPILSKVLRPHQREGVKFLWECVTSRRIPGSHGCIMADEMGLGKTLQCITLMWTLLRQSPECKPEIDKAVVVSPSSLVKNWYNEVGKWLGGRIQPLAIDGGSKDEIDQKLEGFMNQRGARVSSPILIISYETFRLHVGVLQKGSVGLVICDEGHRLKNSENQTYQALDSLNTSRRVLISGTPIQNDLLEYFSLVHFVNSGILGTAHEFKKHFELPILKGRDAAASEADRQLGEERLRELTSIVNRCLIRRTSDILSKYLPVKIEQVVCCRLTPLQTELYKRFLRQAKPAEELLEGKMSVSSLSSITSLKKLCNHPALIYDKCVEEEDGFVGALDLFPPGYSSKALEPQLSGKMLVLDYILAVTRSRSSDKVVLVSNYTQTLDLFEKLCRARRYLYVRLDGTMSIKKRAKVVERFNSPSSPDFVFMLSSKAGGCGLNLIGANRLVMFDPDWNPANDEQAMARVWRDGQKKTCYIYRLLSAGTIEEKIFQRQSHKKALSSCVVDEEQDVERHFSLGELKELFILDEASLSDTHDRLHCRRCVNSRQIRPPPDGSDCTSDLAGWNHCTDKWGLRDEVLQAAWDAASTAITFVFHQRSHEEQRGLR", "experiment": "inhibitors of human RAD54 branch migration, confirmation, biochemical, fluorescence, cherry-picked samples, dose series (AID 651657)", "type": "functional"}, "[12]": {"test_system": "H4", "experiment": "Luminescence Cell-Based Dose Response HTS to Identify Activators of 5'UTR Stem-Loop Driven Prion Protein mRNA Translation in H4 Neuroglioblastoma Cells. [Related pubchem assays: 1829 (Project Summary), 1814 (Primary HTS)]", "type": "functional", "details": "Homo sapiens"}, "[13]": {"experiment": "Luminescence Cell-Based Dose Response HTS to Identify Activators of Luciferase Translation or Activity in H4 […] Cells. [Related pubchem assays: 1829 (Project Summary), 1814 (Primary HTS)]", "type": "functional"}, "[14]": {"experiment": "Luminescence Cell-Based Dose Confirmation HTS to Identify Activators of 5'UTR Stem-Loop Driven Alpha-Synuclein mRNA Translation in H4 Neuroglioblastoma Cells. [Related pubchem assays: 1829 (Project Summary), 1814 (Primary HTS)]", "type": "functional"}, "[15]": {"experiment": "Vero cell cytotoxicity, cytotoxicity control for M. tuberculosis inhibitor project, purified and synthesized samples, set 3 (AID 504684)", "type": "functional", "details": "[…]"}, "[16]": {"target": "T4, Sentrin-specific protease 1 (Homo sapiens, UniProt Q9P0U3)", "T4 sequence (Q9P0U3 whole entry)": "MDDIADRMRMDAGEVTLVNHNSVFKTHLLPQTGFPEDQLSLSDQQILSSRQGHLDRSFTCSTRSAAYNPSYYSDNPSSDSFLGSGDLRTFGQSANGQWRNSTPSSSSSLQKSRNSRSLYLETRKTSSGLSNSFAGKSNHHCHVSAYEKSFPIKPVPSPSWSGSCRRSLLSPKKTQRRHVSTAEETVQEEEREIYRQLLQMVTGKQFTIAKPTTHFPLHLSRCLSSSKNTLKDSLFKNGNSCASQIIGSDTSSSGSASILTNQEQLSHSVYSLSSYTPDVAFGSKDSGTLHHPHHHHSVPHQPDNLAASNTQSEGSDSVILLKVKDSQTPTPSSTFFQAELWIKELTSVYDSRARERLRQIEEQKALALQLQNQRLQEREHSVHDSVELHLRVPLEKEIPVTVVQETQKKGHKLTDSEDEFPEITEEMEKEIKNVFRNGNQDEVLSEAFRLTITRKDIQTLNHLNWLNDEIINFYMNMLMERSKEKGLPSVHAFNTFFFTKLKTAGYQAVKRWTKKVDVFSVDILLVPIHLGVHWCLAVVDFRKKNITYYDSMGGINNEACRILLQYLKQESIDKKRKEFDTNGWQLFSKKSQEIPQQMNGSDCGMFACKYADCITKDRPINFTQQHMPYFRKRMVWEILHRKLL", "experiment": "Dose response confirmation of small molecule inhibitors of the catalytic domain of the SUMO protease, SENP1 in a FRET assay.", "type": "functional", "details": "read-out: IC50_Mean"}, "[17]": {"target": "Melanocortin receptor 4 (Homo sapiens, UniProt P32245)", "sequence (P32245 whole entry)": "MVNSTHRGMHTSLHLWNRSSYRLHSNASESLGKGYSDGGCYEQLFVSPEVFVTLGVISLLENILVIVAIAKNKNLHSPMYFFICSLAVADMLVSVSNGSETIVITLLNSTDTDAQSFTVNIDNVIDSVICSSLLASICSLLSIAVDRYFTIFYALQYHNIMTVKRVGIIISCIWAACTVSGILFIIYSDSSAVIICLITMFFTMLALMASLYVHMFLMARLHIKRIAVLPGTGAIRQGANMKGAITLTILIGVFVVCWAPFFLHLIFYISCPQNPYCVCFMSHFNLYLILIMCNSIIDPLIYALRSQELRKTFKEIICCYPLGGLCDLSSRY", "type": "functional, cell-based"}, "[18]": {"target": "T4, Sentrin-specific protease 1", "experiment": "potency of human SENP1 inhibitors, dose response, biochemical, kinetic FRET (AID 651697)", "type": "functional", "details": "read-out: IC50_Mean"}, "[19]": {"experiment": "ARNT/TACC3 interaction disruptors, potency, confirmation, biochemical, AlphaScreen, cherry-picked samples (AID 651703);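 note: His-tagged ARNT PAS-B domain paired with GST-TACC3 E629A dimer coactivator fragment; potency of inhibitors that break up the complex and lower AlphaScreen signal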", "type": "functional, Homo sapiens"}, "[20]": {"target": "Potassium voltage-gated channel subfamily KQT member 2 (Rattus norvegicus, UniProt O88943)", "experiment": "KCNQ2 potassium channel inhibitors, dose response, cell-based, automated electrophysiology, set II, rat KCNQ2 (AID 588637)", "type": "functional"}},
  "note": "Calls of active or inactive are those of the source.",
  "data": [
    {"smiles": "Cc1cc(/C=C2\\C(=O)NC(=O)N(c3ccccc3F)C2=O)c(C)n1-c1cc(C(=O)O)cc(C(=O)O)c1", "values": [
      {"measurement": "AC50", "setting": "[1]", "result": "> 20 µM (inactive)"},
      {"measurement": "EC50", "setting": "[2]", "result": "> 300 µM (not active)"},
      {"measurement": "EC50", "setting": "[3]", "result": "> 300 µM (not active)"},
      {"measurement": "IC50", "setting": "[4]", "result": "1.55 µM (active)"},
      {"measurement": "IC50", "setting": "[5]", "result": "10.7 µM (active)"},
      {"measurement": "IC50", "setting": "[6]", "result": "63.6 µM (active)"}
    ]},
    {"smiles": "CCCCN(C(C)=O)c1ccc2c(c1)C1CC2CCN1C(=O)OCc1ccccc1", "note": "(stereo not given)", "values": [
      {"measurement": "IC50", "setting": "[7]", "result": "3.72 µM (active)"},
      {"measurement": "AC50", "setting": "[8]", "result": "1.37 µM (active)"},
      {"measurement": "AC50", "setting": "[9]", "result": "4.4 µM (active)"},
      {"measurement": "AC50", "setting": "[10]", "result": "66.9 µM (active)"}
    ]},
    {"smiles": "Cn1c(C(=O)NCCN2CCCCCC2)cc2c(=O)n(C)c3ccccc3c21", "values": [
      {"measurement": "AC50", "setting": "[11]", "result": "25.3 µM (active)"}
    ]},
    {"smiles": "CCc1ccc(/C=C2/C(=O)N(C)C(=S)N2CC(=O)OC)s1", "values": [
      {"measurement": "EC50", "setting": "[12]", "result": "> 120 µM (not active)"},
      {"measurement": "EC50", "setting": "[13]", "result": "> 120 µM (not active)"},
      {"measurement": "EC50", "setting": "[14]", "result": "16.6 µM (active)"},
      {"measurement": "CC50", "setting": "[15]", "result": "> 100 µM (active)"}
    ]},
    {"smiles": "CC(=O)c1cccc(-c2cnc3c(NC=O)cc(-c4ccc(N(C)C)cc4)cn23)c1", "values": [
      {"measurement": "IC50", "setting": "[16]", "result": "11.2 µM (active)"},
      {"measurement": "EC50", "setting": "[17]", "result": "> 89.2 µM (inactive)"},
      {"measurement": "IC50", "setting": "[18]", "result": "9.66 µM (active)"}
    ]},
    {"smiles": "N#C[C@@H]1[C@@H](c2ccc(-c3ccc(F)cc3)cc2)[C@H](CO)N1c1nc(-c2ccccc2)cs1", "values": [
      {"measurement": "AC50", "setting": "[19]", "result": "84.2 µM (active)"}
    ]},
    {"smiles": "COCCNC(C(=O)Nc1cc(Cl)cc(Cl)c1)c1ccccc1", "note": "(stereo not given)", "values": [
      {"measurement": "IC50", "setting": "[20]", "result": "16.1 µM (active)"}
    ]}
  ]
}
